As usually defined, the Ki is a measure of affinity in units of concentration, obtained from inhibition or displacement. As a reminder, the IC50 is the concentration that inhibits the measured activity by half. A lower IC50 goes with greater potency in that assay.

Like-named read-outs stand apart in the source and are kept apart here.

Test [1] has as its target human Adenosine A1 receptor (Homo sapiens (Human), UniProt P30542). Put plainly: Adenosine receptor TR-FRET binding assay (A1). As for the experimental part: (§1) All FRET binding experiments were conducted at room temperature in white 384-well plates, in assay binding buffer containing 1× LabMed (Cisbio, France), 100 μg/mL saponin, 1% DMSO and 0.02% pluronic acid. Binding of the fluorescently labelled Adenosine receptor antagonist XAC (CA200645, FRET acceptor) to terbium-labelled A1, A2a, A2b and A3 adenosine receptors (FRET donors) was detected by time-resolved FRET due to the close proximity of the donor and acceptor in a binding event. To investigate the ability of unlabelled test compounds to bind to Adenosine A1, A2a, A2b and A3 receptors, dose response curves were constructed that determined the ability of a range of concentrations to inhibit the binding of 30 nM CA200645 to the A2b receptor and 100 nM CA200645 to the A1, A2a, and A3 receptor.
(§2) Serial dilution (1:3 dilutions) of test compounds in neat DMSO and transfer of a 400 nL sample of test compound into the assay plate was carried out using the Mosquito (TTP Labtech, UK). The compound samples were incubated for 2 hours at room temperature with a fixed concentration of CA200645 defined for each receptor (see above) and CHO cell membranes containing the human Adenosine A1 (0.5 μg/well), A2a (0.3 μg/well), A2b (1 μg/well) or A3 (1 μg/well) receptor in 40 μL of assay buffer. Total and non-specific binding of CA200645 was determined in the absence and presence of 10 μM XAC, respectively. Following 2 hours incubation, the level of CA200645 binding was detected on a Pherastar FSX (BMG Labtech, Germany) using standard TR-FRET settings. The terbium donor was excited with three laser flashes at a wavelength of 337 nm, and donor and acceptor emission was detected at 620 nm and 665 nm wavelengths, respectively. FRET ratios were obtained by multiplying the acceptor/donor ratio value by 10,000. Specific binding was determined by subtracting the non-specific binding FRET ratio from the total binding FRET ratio. Compound IC50 curves were analysed using GraphPad Prism 7.0 (GraphPad, USA) and Ki affinity values were determined from the obtained IC50 values using the method of Cheng and Prusoff.
For orientation: In TR-FRET formats the signal depends on donor and acceptor labels being close together.

The target of test [2] is human Adenosine A2a receptor (Homo sapiens (Human), UniProt P29274). Put plainly: Adenosine receptor TR-FRET binding assay (A2a). As for the experimental part: as §1, §2
Test [3] concerns the target human Adenosine A2b receptor (Homo sapiens (Human), UniProt P29275). Put plainly: Adenosine receptor TR-FRET binding assay (A2b). The following applies: inhibition of binding of 30 nM CA200645; CHO cell membranes; Ki from IC50 by Cheng and Prusoff. As to the method:
as §1, §2

The target in test [4] is human Adenosine A3 receptor (Homo sapiens (Human), UniProt P0DMS8). The test is described as follows: Adenosine receptor TR-FRET binding assay (A3). Particulars: inhibition of binding of 100 nM CA200645; CHO cell membranes; Ki from IC50 by Cheng and Prusoff. As to the method:
as §1, §2

Test [5] concerns CD8+ T cells in human whole blood. The test is described as follows: Measurement of pCREB in CD8+ T cells in human whole blood. The test is classed as cell-based. The following applies: T-cell, 3 μM NECA, rolipram, FACS. As for the experimental part:
Heparinised human whole blood was pre-incubated at 37° C. with serial dilutions of A2a antagonists for 20 min. and the phosphodiesterase inhibitor rolipram to amplify the pCREB response. The adenosine receptor agonist NECA is then added at a final concentration of 3 μM and following a 60 min incubation the blood is fixed and red blood cells lysed. White blood cells are isolated, permeabilized and stained with directly conjugated fluorescent antibodies to phospho-CREB (Alexa Fluor 488) and CD8 (Alexa Fluor 647) and the level of phospho-CREB in CD8+ T cells is measured by FACS using a BD Accuri C6 Flow Cytometer.

The mark [6] stands for this setting: inhibition of binding of 100 nM CA200645, CHO cell membranes, Ki from IC50 by Cheng and Prusoff.

Chain of human Adenosine A2b receptor (P29275 whole entry): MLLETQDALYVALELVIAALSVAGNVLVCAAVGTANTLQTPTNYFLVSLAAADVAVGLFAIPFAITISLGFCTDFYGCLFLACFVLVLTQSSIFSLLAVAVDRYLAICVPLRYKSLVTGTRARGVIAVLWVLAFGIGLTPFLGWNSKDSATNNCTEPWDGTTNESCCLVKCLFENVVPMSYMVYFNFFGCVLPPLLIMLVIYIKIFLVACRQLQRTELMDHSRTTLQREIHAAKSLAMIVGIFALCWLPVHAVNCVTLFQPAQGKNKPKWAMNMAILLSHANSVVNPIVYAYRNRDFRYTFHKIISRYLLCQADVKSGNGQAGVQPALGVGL
Chain of human Adenosine A1 receptor (P30542 whole entry): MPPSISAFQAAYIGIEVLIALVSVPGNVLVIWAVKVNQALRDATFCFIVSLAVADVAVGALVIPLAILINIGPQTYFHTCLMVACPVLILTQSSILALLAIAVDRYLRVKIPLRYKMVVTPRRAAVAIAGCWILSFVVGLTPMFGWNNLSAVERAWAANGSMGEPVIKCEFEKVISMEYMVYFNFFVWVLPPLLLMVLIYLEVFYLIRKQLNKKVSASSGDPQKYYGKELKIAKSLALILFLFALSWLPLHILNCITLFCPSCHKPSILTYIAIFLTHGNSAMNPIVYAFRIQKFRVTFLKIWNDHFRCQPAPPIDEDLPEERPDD
Chain of human Adenosine A2a receptor (P29274 whole entry): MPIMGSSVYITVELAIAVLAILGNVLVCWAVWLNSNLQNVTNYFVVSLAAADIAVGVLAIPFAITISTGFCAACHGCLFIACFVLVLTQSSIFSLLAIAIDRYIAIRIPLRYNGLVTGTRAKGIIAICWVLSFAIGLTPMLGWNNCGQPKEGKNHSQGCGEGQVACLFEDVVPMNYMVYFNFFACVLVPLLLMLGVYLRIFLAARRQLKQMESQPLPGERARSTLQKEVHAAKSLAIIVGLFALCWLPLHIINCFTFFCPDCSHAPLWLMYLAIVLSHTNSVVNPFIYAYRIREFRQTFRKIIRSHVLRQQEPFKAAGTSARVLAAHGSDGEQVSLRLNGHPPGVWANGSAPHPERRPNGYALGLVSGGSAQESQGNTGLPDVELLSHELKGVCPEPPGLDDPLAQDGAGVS
Chain of human Adenosine A3 receptor (P0DMS8 whole entry): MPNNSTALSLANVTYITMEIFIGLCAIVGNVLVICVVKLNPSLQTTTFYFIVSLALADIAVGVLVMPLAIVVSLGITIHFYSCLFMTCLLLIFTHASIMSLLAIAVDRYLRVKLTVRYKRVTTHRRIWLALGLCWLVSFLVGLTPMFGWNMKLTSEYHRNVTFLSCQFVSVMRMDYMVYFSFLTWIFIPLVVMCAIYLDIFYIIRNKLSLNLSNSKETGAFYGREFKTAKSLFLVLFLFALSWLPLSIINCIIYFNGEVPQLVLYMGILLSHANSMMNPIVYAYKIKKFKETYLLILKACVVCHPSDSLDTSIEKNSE

As for `Cc1cc(-c2sc(NC(=O)N3CC4(COC4)C3)nc2-c2cccc(C#N)c2)cc2cn(C)nc12` [Example 28, N-[4-(3-Cyanophenyl)-5-(2,7-dimethylindazol-5-yl)thiazol-2-yl]-2-oxa-6-azaspiro[3.3]heptane-6-carboxamide], the Ki in test [1] (setting [6]) was 21 nM; in test [2] (setting [6]), 8.4 nM; in test [3] it was 6.7 nM; in test [4], 628 nM.
Taken in the same sequence, the figures for `Cc1cc(-c2sc(NC(=O)N3CC4(COC4)C3)nc2-c2cccc(C#N)c2)c2[nH]ncc2n1` [Example 23, N-[4-(3-Cyanophenyl)-5-(5-methyl-1H-pyrazolo[4,3-b]pyridin-7-yl)thiazol-2-yl]-2-oxa-6-azaspiro[3.3]heptane-6-carboxamide] were 467 nM, 6.56 nM, 1.6 nM and 126 nM.
`Cc1ncnc2ccc(-c3sc(NC(=O)N4CCC5(CNCCO5)C4)nc3-c3cccc(C#N)c3)cc12` (stereo not drawn) [Example 4, N-[4-(3-Cyanophenyl)-5-(4-methylquinazolin-6-yl)thiazol-2-yl]-6-oxa-2,9-diazaspiro[4.5]decane-2-carboxamide]: the Ki in test [1] (setting [6]) came out at 27 nM; in test [2] (setting [6]), 0.19 nM; in test [3] it was 1.9 nM. Further, in test [5], the IC50 turned out to be 10 nM.
Turning to `Cc1cc(-c2sc(NC(=O)N3CCC(C)(C#N)CC3)nc2-c2cccc(C#N)c2)c2[nH]ncc2n1` [Example 19, 4-Cyano-N-[4-(3-cyanophenyl)-5-(5-methyl-1H-pyrazolo[4,3-b]pyridin-7-yl)thiazol-2-yl]-4-methyl-piperidine-1-carboxamide], the Ki in test [1] (setting [6]) turned out to be 240 nM; in test [2] (setting [6]), 2 nM; in test [3] it was 1.8 nM. Besides, the IC50 in test [5] stood at 216 nM.
On to `Cc1ncnc2ccc(-c3sc(NC(=O)N4CCOC(C(C)(C)O)C4)nc3-c3cccc(C#N)c3)cc12` (racemic) [Example 7.7, N-[4-(3-Cyanophenyl)-5-(4-methylquinazolin-6-yl)thiazol-2-yl]-2-(1-hydroxy-1-methyl-ethyl)morpholine-4-carboxamide], for which the Ki in test [1] (setting [6]) was 9 nM; in test [2] (setting [6]), 0.26 nM; in test [3], 3.6 nM.
Turning to `Cc1ncnc2ccc(-c3sc(NC(=O)N4CC5CN(C)CC54)nc3-c3cccc(C#N)c3)cc12` (stereo not drawn) [Example 7.3, N-[4-(3-Cyanophenyl)-5-(4-methylquinazolin-6-yl)thiazol-2-yl]-3-methyl-3,6-diazabicyclo[3.2.0]heptane-6-carboxamide], the inhibition constant (Ki) is 19 nM in test [1] (setting [6]), 2.42 nM in test [2] (setting [6]) and 10.5 nM in test [3].
For `Cc1ncnc2ccc(-c3sc(NC(=O)N4CC5(CCO5)C4)nc3-c3cccc(C#N)c3)cc12` [Example 7.19, N-[4-(3-Cyanophenyl)-5-(4-methylquinazolin-6-yl)thiazol-2-yl]-1-oxa-6-azaspiro[3.3]heptane-6-carboxamide], the Ki worked out at 13 nM in test [1] (setting [6]), 0.08 nM in test [2] (setting [6]) and 0.9 nM in test [3].
`Cc1ncnc2ccc(-c3sc(NC(=O)N4CCO[C@H](C(C)(C)O)C4)nc3-c3cccc(C#N)c3)cc12` (single isomer, unassigned) [Example 7.7a, (2S)—N-[4-(3-Cyanophenyl)-5-(4-methylquinazolin-6-yl)thiazol-2-yl]-2-(1-hydroxy-1-methyl-ethyl)morpholine-4-carboxamide or (2R)—N-[4-(3-cyanophenyl)-5-(4-methylquinazolin-6-yl)thiazol-2-yl]-2-(1-hydroxy-1-methyl-ethyl)morpholine-4-carboxamide]: the inhibition constant (Ki) in test [1] (setting [6]) was determined as 4 nM; in test [2] (setting [6]) it was 0.1 nM; in test [3], 1.1 nM.
On to `Cc1ncnc2ccc(-c3sc(NC(=O)N4CC5(COC5)C4)nc3-c3cccc(C#N)c3)cc12` [Example 7.29, N-[4-(3-Cyanophenyl)-5-(4-methylquinazolin-6-yl)thiazol-2-yl]-2-oxa-6-azaspiro[3.3]heptane-6-carboxamide], for which the results for the Ki in test [1] (setting [6]), in test [2] (setting [6]) and in test [3] were 3 nM, 0.09 nM and 0.5 nM, respectively. Also, half-maximal inhibition in test [5] (IC50) was put at 5 nM.
`Cc1ncnc2ccc(-c3sc(NC(=O)N4CCCNCC4)nc3-c3cccc(C#N)c3)cc12` [Example 7.18, N-[4-(3-Cyanophenyl)-5-(4-methylquinazolin-6-yl)thiazol-2-yl]-1,4-diazepane-1-carboxamide]: the inhibition constant (Ki) stood at 11 nM in test [1] (setting [6]), 0.38 nM in test [2] (setting [6]) and 2.2 nM in test [3].
Turning to `Cc1ncnc2ccc(-c3sc(NC(=O)N4CCC5(COCCN5)C4)nc3-c3cccc(C#N)c3)cc12` (stereo not drawn) [Example 4.3, N-[4-(3-Cyanophenyl)-5-(4-methylquinazolin-6-yl)thiazol-2-yl]-9-oxa-2,6-diazaspiro[4.5]decane-2-carboxamide], the values for the Ki in test [1], in test [2] and in test [3] were 30 nM, 0.3 nM and 2.4 nM, respectively.
Regarding `Cc1ncnc2ccc(-c3sc(NC(=O)N4CC5CCCN(C)C5C4)nc3-c3cccc(C#N)c3)cc12` (stereo not drawn) [Example 7.11, N-[4-(3-Cyanophenyl)-5-(4-methylquinazolin-6-yl)thiazol-2-yl]-1-methyl-3,4,4a,5,7,7a-hexahydro-2H-pyrrolo[3,4-b]pyridine-6-carboxamide], the figures for the Ki in test [1] (setting [6]), in test [2] (setting [6]) and in test [3] were 98 nM, 0.54 nM and 5.4 nM, respectively.
Taken in the same sequence, the figures for `Cc1ncnc2ccc(-c3sc(NC(=O)N4CCC(N5CCOCC5)CC4)nc3-c3cccc(C#N)c3)cc12` [Example 7.14, N-[4-(3-Cyanophenyl)-5-(4-methylquinazolin-6-yl)thiazol-2-yl]-4-morpholino-piperidine-1-carboxamide] were 150 nM, 2.61 nM and 5.4 nM.
In the same order, the values of `Cc1ncnc2ccc(-c3sc(NC(=O)N4CCOC(CN(C)C)C4)nc3-c3cccc(C#N)c3)cc12` (stereo not drawn) [Example 7.8, N-[4-(3-Cyanophenyl)-5-(4-methylquinazolin-6-yl)thiazol-2-yl]-2-[(dimethylamino)methyl]morpholine-4-carboxamide] are 13 nM, 0.14 nM and 2.4 nM.
`Cc1ncnc2ccc(-c3sc(NC(=O)N4CCC5(CC4)CNCCO5)nc3-c3cccc(C#N)c3)cc12` [Example 3.1, N-[4-(3-Cyanophenyl)-5-(4-methylquinazolin-6-yl)thiazol-2-yl]-1-oxa-4,9-diazaspiro[5.5]undecane-9-carboxamide]: the Ki worked out at 48 nM in test [1] (setting [6]), 0.15 nM in test [2] (setting [6]) and 1.3 nM in test [3]. Half-maximal inhibition in test [5] (IC50) was put at 10 nM.
Turning to `Cc1cc(-c2sc(NC(=O)N3CC4(COC4)C3)nc2-c2cccc(C#N)c2)cn2ccnc12` [Example 29, N-[4-(3-Cyanophenyl)-5-(8-methylimidazo[1,2-a]pyridin-6-yl)thiazol-2-yl]-2-oxa-6-azaspiro[3.3]heptane-6-carboxamide], the inhibitory constant (Ki) in test [1] (setting [6]) worked out at 4 nM; in test [2] (setting [6]), 1.88 nM; in test [3], 1.3 nM.
As for `Cc1ncnc2ccc(-c3sc(NC(=O)N4CC5(COCCN5)C4)nc3-c3cccc(C#N)c3)cc12` [Example 4.2, N-[4-(3-Cyanophenyl)-5-(4-methylquinazolin-6-yl)thiazol-2-yl]-8-oxa-2,5-diazaspiro[3.5]nonane-2-carboxamide], the inhibitory constant (Ki) worked out at 34 nM in test [1], 0.35 nM in test [2] and 3 nM in test [3].

These data come from patent US20250243194A1, “ANTAGONIST OF ADENOSINE RECEPTORS” (AdoRx Therapeutics Limited, priority 2022, published 2025).
